{"source": "patent US7271148B2", "about": "“Inhibition of cellular proteases” (The Board of Regents of The University of Texas System, priority 1999, dated 2007)", "system": "p21^cip1 abundance in HCMV-infected LU cells", "assay": "Western blot of p21cip1 abundance in HCMV-infected, density-arrested LU cells", "assay_type": "cell-based, human", "method": "Cell culture and growth arrest. LU cells (3) were propagated in Eagle's minimum essential medium containing 10% fetal bovine serum and penicillin (100 units/ml)/streptomycin (100 μg/ml) in a 5% CO2 in air atmosphere. The cells were density-arrested as described previously in detail (18).\nVirus stocks and productive infection. The AD169 strain of HCMV was propagated in LU cells as previously described in detail (6). The infectivity of virus stocks was determined by plaque assay (3). Virus stocks typically had infectivities between 8.0×10^6 and 4.0×10^7 plaque-forming units (PFU)/milliliter. LU cells were infected with HCMV as described in detail by Bresnahan et al. (18). Virus stocks and cell cultures were routinely examined for mycoplasma.\nWestern blots. Polyclonal or monoclonal antibody for p21^cip1 was obtained from Santa Cruz Biotechnology, Inc. (Santa Cruz, Calif.). Monoclonal antibodies against m-calpain, μ-calpain or calpastatin were generously provided by Dr. R. I. Mellgren (see also 75). Cells were harvested as described previously (18) by dislodging the cells with a cell lifter in phosphate buffered saline. The cells were collected by sedimentation and lysed in NP-40 lysis buffer [50 mM Tris, pH 7.4, 50 mM NaCl, 0.5% NP-40, and 1 mM NaVO3, 50 mM NaF, 1mM phenylmethylsulfonyl fluoride (PMSF), 1 mM dithiothreitol (DTT), 25 μg/ml trypsin inhibitor, 25 μg/ml aprotinin, 1 mM benzamide, and 25 μg/ml pepstatin A added just before use]. Cellular debris was removed by sedimentation and the supernatant fluids were reserved. The protein concentration was determined by the BCA protein assay (Pierce, Rockford, Ill.). Whole cell extracts (40 μg/lane) were fractionated by SDS-polyacrylamide gel electrophoresis (PAGE), and the polypeptides were transferred to nitrocellulose membranes (Bio-Rad Laboratories, Hercules, Calif.) as described previously (18). Antigen-antibody reactions were detected with the enhanced chemiluminescent assay (Amersham Pharmacia Biotech) following the manufacturer's recommendations. […]\nFIGS. 9 and 10. The concentration effect of E64d on p21^cip1 abundance in HCMV-infected cells. 9: LU cells were density arrested as described in Materials and Methods. The cells were HCMV (5 PFU/cell) or mock infected, and at 48 hr PI were treated with selected concentrations of E64d. Whole cell lysates were prepared 6 hr later, and 40 μg of protein from each lysate was resolved by SDS-PAGE. The proteins were transferred to nitrocellulose and probed with antibodies to p21^cip1. Mock: mock-infected cells in the absence of drug. Control, untreated HCMV-infected cells. 0, DMSO solvent control, consisting of HCMV-infected cells treated with the same concentration of DMSO solvent (0.1%) contained in the highest concentration of E64d. 10: Represents the abundance of p21^cip1 determined by densitometric analysis of the data in FIG. 9.\nFIGS. 11 and 12. The concentration effect of Z-Leu-Leu-H on p21^cip1 abundance in HCMV-infected cells. 11. LU cells were density arrested as described in Materials and Methods. The cells were HCMV (5 PFU/cell) infected, and at 48 hr PI were treated with selected concentrations of Z-Leu-Leu-H. Whole cell lysates were prepared 6 hr later, and 40 μg of protein from each lysate was resolved by SDS-PAGE. The proteins were transferred to nitrocellulose and probed with antibodies to p21^cip1. Mock, Control, and 0 are defined as in the legend to FIG. 9. 12 : Represents the abundance of p21^cip1 determined by densitometric analysis of the data in FIG. 11.\nFIGS. 13 and 14. The time course for the effect of E64d on p21^cip1 abundance in HCMV-infected, density-arrested cells. 13: LU cells were density arrested, as described in Materials and Methods. The cells were HCMV (5 PFU/cell) or mock infected, and at the intervals indicated in the Fig., beginning 1 hr after infection, subsets of the cells were treated with E64d (100 μM). […]", "data": [{"smiles": "CC(C)C[C@H](NC(=O)[C@H]1O[C@@H]1C(=O)O)C(=O)NCCCCN=C(N)N", "note": "(relative stereo) [E64d, trans-epoxysuccinyl-L-leucylamido (4-guanidino)-butane]", "values": [{"measurement": "p21^cip1 abundance as % of that measured in mock-infected cells", "setting": "100 μM, HCMV-infected cells treated at 48 hr PI, lysates 6 hr later", "value": "about 85%"}, {"measurement": "increase in the abundance of p21^cip1", "setting": "E64d 100 μM from 48 hr PI, HCMV-infected cells, after 12 hr of treatment", "value": 4, "unit": "fold"}, {"measurement": "maximum level of p21^cip1 relative to that observed at 0 hr", "setting": "E64d 100 μM from 48 hr PI, HCMV-infected cells, up to 24 hr treatment", "value": "about 84%"}, {"measurement": "p21^cip1 levels versus absence of inhibitor over time course of infection (in words)", "setting": "E64d 100 μM up to 12 hr before harvest, HCMV-infected cells, 3 hr to 96 hr PI", "value": "consistently greater"}, {"measurement": "protection of p21^cip1, concentration effect (in words)", "setting": "HCMV-infected cells treated at 48 hr PI for 6 hr, selected concentrations up to 100 μM", "value": "directly dependent on the concentration"}]}]}
